Test system: BK-induced human umbilical vein contractions
Assay: cells
Description: The inhibition effect of CFMQ on bradykinin induced […] was examined in an ex vivo functional assay of human umbilical vein contraction, which is considered a gold standard for bradykinin activity measurements. […] Firazyr®). Following a 30 minute incubation, BK-induced vein contractions were initiated in a cumulative manner (final concentration of 10 μM), followed by maximal calibration contraction induction by 10 μM serotonin. The tension increase for each dose response was calculated in relation to the (maximal) response towards serotonin, graphed as a dose-response curve and used to calculate an effective concentration at 50% (EC50) value (FIG. 6)

SMILES: NC(N)=NCCC[C@@H](N)C(=O)N[C@@H](CCCN=C(N)N)C(=O)N1CCC[C@H]1C(=O)N1C[C@H](O)C[C@H]1C(=O)NCC(=O)N[C@@H](Cc1cccs1)C(=O)N[C@@H](CO)C(=O)N1Cc2ccccc2C[C@@H]1C(=O)N1[C@H](C(=O)N[C@@H](CCCN=C(N)N)C(=O)O)C[C@@H]2CCCC[C@@H]21 [Firazyr® (icatibant), icatibant, reference compound]
- EC50: 2.5 nM
